Source: patent US6391599B1, “Sham-sensitive terminal oxidase gene from xylose-fermenting yeast” (priority 2000, dated 2002)
Entries after “also recorded” stand apart in the source; their conditions may differ.

Legend:
Type in all cases: cell-based, Pichia stipitis
Set-up in all cases: key to Rotenone sensitivity (rotenone-insensitive respiration): +: Cells sustained rotenone-insensitive respiration; −: Cells could not sustain rotenone-insensitive respiration
[1] = system: P. stipitis wild-type CBS 6054; test: Respiration measurement (oxygen uptake, Clark type electrode) with inhibitor; conditions: 0.1 mM rotenone
Protocol: (§1) P. stipitis strains were grown overnight in YNBUP-xylose (2%) medium under aerobic conditions. Then half of the overnight-grown cells were transferred to 25 mL fresh medium to grow for 16 h to mid-log phase under the same conditions. The cells were harvested and washed in an assay buffer containing 20 mM potassium phosphate (pH7.0) and 5 mM magnesium chloride. The cells were resuspended in 500 μL of the same buffer for assays. Oxygen uptake was measured by using a Clark type of electrode (Yellow Spring Instrument). The assay was performed in an assay buffer containing 20 mM potassium phosphate, 5 mM magnesium chloride, plus xylose or glucose (2%) as the substrate at 30° C. The assay buffer was saturated with air before the experiment. Ten to fifty μL of cells were injected into the assay chamber and the total reaction volume was 2 mL. Antimycin A, SHAM or rotenone was dissolved in dimethyl formamide while potassium cyanide was dissolved in water. Inhibitor solution was injected into the chamber after adding the cells.

[2] = system: P. stipitis FPL-UC7 (ura3-3); test: Respiration measurement (oxygen uptake) with inhibitor; conditions: for Rotenone sensitivity (rotenone-insensitive respiration): 0.1 mM rotenone
Protocol: as §1

[3] = system: P. stipitis FPL-Shi21 (cyc1-Δ); test: as above; conditions: for Rotenone sensitivity (rotenone-insensitive respiration): 0.1 mM rotenone, FPL-Shi21; for Sensitivity of respiration to rotenone (in words): cyc1Δ mutant; for Effect on respiration: FPL-Shi21 (cyc1Δ)
Protocol: as §1

[4] = system: P. stipitis FPL-Shi31 (sto1-Δ); test: as above; conditions: for Rotenone sensitivity (rotenone-insensitive respiration): 0.1 mM rotenone, FPL-Shi31; for Sensitivity of respiration to rotenone (in words): sto1Δ mutant
Protocol: as §1

C=C(C)[C@H]1Cc2c(ccc3c2O[C@@H]2COc4cc(OC)c(OC)cc4[C@@H]2C3=O)O1 [rotenone]
Rotenone sensitivity (rotenone-insensitive respiration) ([1]; glucose-grown cells, CBS 6054): − | Sensitivity of respiration to rotenone (in words) ([1]; glucose-grown cells, CBS 6054): could not sustain any respiration; also recorded: rotenone-sensitive | Time after injection until cells died and floated in the chamber ([1]; glucose-grown cells, CBS 6054): ≤ 1 min | Oxygen consumption rate, +rotenone ([1]; xylose-grown cells): 4.6 ± 0.2 µM/mg/h | Rotenone sensitivity (rotenone-insensitive respiration) ([1]; xylose-grown cells, CBS 6054): + | Sensitivity of respiration to rotenone (in words) ([1]; xylose-grown cells, CBS 6054): respiration was sustained; also recorded: insensitivity to rotenone | Rotenone sensitivity (rotenone-insensitive respiration) ([2]; glucose-grown cells): − | Rotenone sensitivity (rotenone-insensitive respiration) ([2]; xylose-grown cells): + | Sensitivity of respiration to rotenone (in words) ([2]; glucose-grown cells): rotenone-sensitive | Sensitivity of respiration to rotenone (in words) ([2]; xylose-grown cells): insensitivity to rotenone | Rotenone sensitivity (rotenone-insensitive respiration) ([3]; glucose-grown cells): − | Rotenone sensitivity (rotenone-insensitive respiration) ([3]; xylose-grown cells): − | Sensitivity of respiration to rotenone (in words) ([3]; glucose-grown cells): rotenone-sensitive | Sensitivity of respiration to rotenone (in words) ([3]; xylose-grown cells): rotenone-sensitive | Rotenone sensitivity (rotenone-insensitive respiration) ([4]; glucose-grown cells): − | Rotenone sensitivity (rotenone-insensitive respiration) ([4]; xylose-grown cells): − | Sensitivity of respiration to rotenone (in words) ([4]; glucose-grown cells): rotenone-sensitive | Sensitivity of respiration to rotenone (in words) ([4]; xylose-grown cells): rotenone-sensitive

O=C(NO)c1ccccc1O [SHAM, salicyl hydroxymate]
Effect on respiration [3]: completely blocked | Effect on respiration trace ([4]; 4 mM SHAM, sto1Δ cells pre-grown on YNB-xylose (2%)): did not show any change

antimycin A
Effect on respiration [3]: insensitivity | Effect on respiration ([4]; 10 μM antimycin A, sto1Δ mutant cells): respiration dropped to zero
